Reference: publication PMC7696216, “Bi-Functional Alginate Oligosaccharide–Polymyxin Conjugates for Improved Treatment of Multidrug-Resistant Gram-Negative Bacterial Infections” (Pharmaceutics, 2020)
Where two headings read alike, the source gives them in different places.

Tests used:
[1] = in vivo; cited from earlier work
[2] = tested on: P. aeruginosa MDR 301; assay: Bacterial growth curves (48 h); assay type: cell-based, Pseudomonas aeruginosa; details: absorbance 600 nm hourly for 48 h, n = 3
Excerpt: Results were expressed as mean values (n = 3).

[3] = tested on: A. baumannii MDR ACB; assay type: cell-based, Acinetobacter baumannii; details: resazurin read-out
Method: (§1) The minimum inhibitory concentration (MIC) of colistin (as sulphate salt) and polymyxin B and their conjugates was determined using the broth microdilution method in MH broth in accordance with standard guidelines. Test organisms were suspended in MH broth (100 µL, 5 × 10^5 colony forming units (CFU)/mL) and incubated in 96-well microtitre plates in serial two-fold dilutions of the test compounds. […] Results were expressed as mode (n = 3). […] Selective activities of the polymyxins and OligoG–polymyxin conjugates were calculated as follows:Selectivity index (SI) = IC50 (μg/mL)/MIC (μg/mL).
(§2) To account for turbidity caused by mucin, resazurin dye solution (30 µL, 0.01% w/v in dH2O) was added to each well and incubated for a further 3 h at 37 °C. Colour changes were observed and recorded.

[4] = tested on: P. aeruginosa MDR 301; assay type: cell-based, Pseudomonas aeruginosa
Method: as §1
(§3) In addition, alginate oligomer–colistin conjugates (3 mg/mL) were incubated in PBS at pH 7 containing bacterial alginate lyase (1 and 10 U/mL) at 37 °C for 24 h, before preparing microtitre plates as described above.
(§4) To study the antimicrobial efficacy of test compounds under more clinically relevant conditions, the MIC protocol was performed using AS medium instead of MH broth. The plates were incubated with resazurin as described above.

[5] = tested on: E. coli IR57; assay type: cell-based, Escherichia coli
Method: as §1, §2, §4

[6] = tested on: K. pneumoniae IR25; assay type: cell-based, Klebsiella pneumoniae; details: resazurin read-out
Method: as §1, §2

[7] = tested on: E. coli AIM-1; assay: MIC, broth microdilution; assay type: cell-based, Escherichia coli
Method: as §1, §3

[8] = tested on: P. aeruginosa R22; assay: Biofilm formation assay (CLSM, COMSTAT); assay type: cell-based, Pseudomonas aeruginosa; details: 24 h
Method: To analyse the effect of test compounds on biofilm formation, solutions of test compounds in MH broth were inoculated (1:10) with P. aeruginosa R22 (standardised to 10^7 CFU/mL) in a Greiner glass-bottomed optical 96-well plate. The plate was then wrapped in parafilm and incubated (37 °C, 20 rpm) for 24 h. The supernatant was carefully removed and replaced with 10% v/v LIVE/DEAD stain in PBS prior to imaging. CLSM of Syto 9 (λex/λem maximum, 480/500 nm) and propidium iodide (λex/λem maximum, 490/635 nm) was performed using a Leica SP5 confocal microscope with ×63 lens (under oil) and a step size of 0.79 µm. Z-stack CLSM images were analysed using COMSTAT image analysis software and results were expressed as mean ± SEM (n = 15).

[9] = tested on: P. aeruginosa R22; assay type: cell-based, Pseudomonas aeruginosa; details: resazurin read-out
Method: as §1, §2

[10] = cited from earlier work
Method: In a clinical setting, binding of colistin to sputum biomolecules (e.g., mucin) in the airways could negatively impact antibiotic effectiveness and availability. […] A four-fold increase in the MIC of colistin was also reported when the assay was conducted in AS medium instead of MH broth, thought to be caused by bacterial growth disruption, structural modifications of lipopolysaccharides or direct colistin–mucin interactions. Alt ...

[11] = Two-compartment static dialysis bag model, diffusion; assay type: physicochemical; details: IC 10 mg/mL colistin base in PBS (5 mL), OC PBS (15 mL), 37 °C, 70 rpm, BCA assay, n = 3
Method: A two-compartment static dialysis bag model (adapted from Azzopardi et al.) was used to study the PK–PD profile of OligoG–colistin conjugates. First, the ability of the dialysis membrane to control diffusion of test compounds was assessed. […] The aseptically sealed beaker was incubated (37 °C, 70 rpm) for 48 h. Samples were collected at various time points from each compartment and stored at −20 °C prior to analysis of colistin content by BCA assay.

[12] = tested on: P. aeruginosa NH57388A; assay: MIC, broth microdilution; assay type: cell-based, Pseudomonas aeruginosa
Method: as §1, §4

[13] = tested on: A. baumannii 7789; assay type: cell-based, Acinetobacter baumannii
Method: as §1, §3, §4

[14] = tested on: E. coli 5702; assay: MIC, broth microdilution; assay type: cell-based, Escherichia coli
Method: as §1, §4

[15] = tested on: A. baumannii 7789; assay: Time-to-kill (TTK) in PK–PD model; assay type: cell-based, Acinetobacter baumannii; details: 0.25 µg/mL colistin base (colistin sulphate at MIC; OligoG–E–colistin at 2 × MIC), n = 3
Method: A modified experimental set-up was used to investigate the concentration- and time-dependent antimicrobial activity of test compounds using a TTK assay (48 h). […] The OC contained MH broth inoculated with A. baumannii 7789 (5 × 10^5 CFU/mL). Samples were collected from the OC (0, 2, 4, 6, 24 and 48 h) and colony counts (CFU/mL) determined using drop counts. Treatments were considered bactericidal if the reduction in viable bacterial counts was ≥3 log10 CFU/mL (equivalent to 99.9% of the initial inoculum) and bacteriostatic if the decrease was <3 log10 CFU/mL [33, 34]. Growth (no test compounds) and sterility (no bacteria) controls were also performed.

[16] = MH broth + porcine stomach (type II) mucin 0.2% w/v
[17] = MH broth + porcine stomach (type II) mucin 2% w/v
[18] = AS (artificial sputum) medium, resazurin read-out
[19] = MH broth (Table S7 comparison with AS medium)
[20] = alginate lyase in MH broth, 0 U/mL
[21] = alginate lyase in MH broth, 1 U/mL
[22] = alginate lyase in MH broth, 10 U/mL
[23] = pre-incubation with alginate lyase 0 U/mL (3 mg/mL in PBS pH 7, 37 °C, 24 h), then MIC in MH broth
[24] = pre-incubation with alginate lyase 1 U/mL (3 mg/mL in PBS pH 7, 37 °C, 24 h), then MIC in MH broth
[25] = pre-incubation with alginate lyase 10 U/mL (3 mg/mL in PBS pH 7, 37 °C, 24 h), then MIC in MH broth

colistimethate sodium
plasma colistin concentration at steady-state [1]: 0.5 to 4 µg/mL

colistin sulphate
concentration required for growth inhibition (up to >48 h) [2]: ≥ 8 × MIC
MIC [3, 16]: 1 μg/mL Drug Base
MIC [3, 17]: 16 μg/mL Drug Base
MIC ([3]; MH broth, mucin 0%): 0.5 μg/mL Drug Base
MIC [4, 18]: 2 μg/mL Drug Base
MIC [4, 19]: 0.5 μg/mL Drug Base
MIC [4, 20]: 0.063 μg/mL Drug Base
MIC [4, 21]: 0.063 μg/mL Drug Base
MIC [4, 22]: 0.25 μg/mL Drug Base
MIC [4, 23]: 0.063 μg/mL Drug Base
MIC [4, 24]: 0.063 μg/mL Drug Base
MIC [4, 25]: 0.125 μg/mL Drug Base
MIC [5, 18]: 0.125 μg/mL Drug Base
MIC [5, 19]: 0.125 μg/mL Drug Base
MIC ([5]; MH broth + porcine stomach (type II) mucin 0.2% w/v, resazurin read-out): 1 μg/mL Drug Base
MIC ([5]; MH broth + porcine stomach (type II) mucin 2% w/v, resazurin read-out): 2 μg/mL Drug Base
MIC ([5]; MH broth, mucin 0%, resazurin read-out): 0.125 μg/mL Drug Base
MIC [6, 16]: 1 μg/mL Drug Base
MIC [6, 17]: 64 μg/mL Drug Base
MIC [7, 20]: 0.00006 μg/mL Drug Base
MIC [7, 21]: 0.00006 μg/mL Drug Base
MIC [7, 22]: 0.0002 μg/mL Drug Base
MIC ([7]; broth microdilution, MH broth, 5 × 10^5 CFU/mL, 16–20 h, mode (n = 3)): <0.008 μg/mL Drug Base
MIC [7, 23]: 0.00006 μg/mL Drug Base
MIC [7, 24]: 0.001 μg/mL Drug Base
MIC [7, 25]: 0.0002 μg/mL Drug Base
biofilm biomass compared to untreated control ([8]; 2 × MIC (colistin sulphate up to 2 × MIC), n = 15): no significant change
biofilm roughness ([8]; conjugates ≥MIC, colistin sulphate MIC, n = 15, p < 0.05): significantly increased
MIC [9, 16]: 2 μg/mL Drug Base
MIC [9, 17]: 16 μg/mL Drug Base
MIC ([9]; MH broth, mucin 0%): 0.5 μg/mL Drug Base
increase in MIC values when mucin was added to the bacterial culture medium [10]: > 100 fold
time at which 1 mg/mL in the OC was reached [11]: 2.83 h
MIC [12, 18]: 1 μg/mL Drug Base
MIC [12, 19]: 0.25 μg/mL Drug Base
MIC [13, 18]: 1 μg/mL Drug Base
MIC [13, 19]: 0.25 μg/mL Drug Base
MIC [13, 20]: 0.002 μg/mL Drug Base
MIC [13, 21]: 0.004 μg/mL Drug Base
MIC [13, 22]: 0.004 μg/mL Drug Base
MIC [13, 23]: 0.002 μg/mL Drug Base
MIC [13, 24]: 0.002 μg/mL Drug Base
MIC [13, 25]: 0.002 μg/mL Drug Base
MIC [14, 18]: 0.125 μg/mL Drug Base
MIC [14, 19]: 0.031 μg/mL Drug Base
reduction in viable bacterial counts after 4 h [15]: < 3 log10 CFU/mL
